# Data from ChEMBL document CHEMBL2375358, “Substituted thieno[2,3-d]pyrimidines as adenosine A2A receptor antagonists” (Bioorg Med Chem Lett, 2013).
# The source made the active and inactive calls. No cut-off for these calls is given here.
# Key:
# Adenosine receptor A1 = target: T1, Adenosine receptor A1 (Homo sapiens, UniProt P30542); experiment: Antagonist activity at human adenosine A1 receptor expressed in CHOK1 cells assessed as inhibition of R-PIA/forskolin-induced cAMP accumulation incubated for 15 mins prior to R-PIA/forskolin challenge measured after 5.5 to 6 hrs by beta-galactosidase reporter gene assay; type: functional, cell-based, CHO-K1
# T1 sequence (P30542 whole entry): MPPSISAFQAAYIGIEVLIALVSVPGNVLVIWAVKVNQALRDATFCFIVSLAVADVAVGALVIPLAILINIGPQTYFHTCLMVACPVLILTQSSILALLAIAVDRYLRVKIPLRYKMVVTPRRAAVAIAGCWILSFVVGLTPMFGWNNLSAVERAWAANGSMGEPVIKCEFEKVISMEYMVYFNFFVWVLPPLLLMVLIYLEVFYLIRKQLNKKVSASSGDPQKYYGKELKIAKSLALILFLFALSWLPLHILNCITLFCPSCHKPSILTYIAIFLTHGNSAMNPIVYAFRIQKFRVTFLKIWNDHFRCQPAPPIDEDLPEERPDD
# Adenosine receptor A2a = Adenosine receptor A2a (Homo sapiens, UniProt P29274); experiment: Antagonist activity at human adenosine A2a receptor expressed in CHOK1 cells assessed as inhibition of NECA/forskolin-induced cAMP accumulation incubated for 15 mins prior to NECA/forskolin challenge measured after 5.5 to 6 hrs by beta-galactosidase reporter gene assay; type: functional, cell-based, CHO-K1
# Adenosine receptor A2a, sequence (P29274 whole entry): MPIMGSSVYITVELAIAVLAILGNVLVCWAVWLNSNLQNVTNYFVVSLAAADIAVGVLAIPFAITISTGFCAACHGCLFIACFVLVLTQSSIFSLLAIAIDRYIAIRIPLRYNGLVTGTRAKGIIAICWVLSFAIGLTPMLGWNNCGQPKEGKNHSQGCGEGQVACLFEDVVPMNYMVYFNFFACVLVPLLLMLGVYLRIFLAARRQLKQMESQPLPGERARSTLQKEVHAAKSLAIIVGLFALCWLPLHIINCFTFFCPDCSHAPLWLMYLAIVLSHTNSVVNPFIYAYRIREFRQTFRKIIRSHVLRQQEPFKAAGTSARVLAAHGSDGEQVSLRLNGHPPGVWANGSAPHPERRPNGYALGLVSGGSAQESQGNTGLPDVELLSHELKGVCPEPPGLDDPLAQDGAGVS
# Mus musculus [1] = experiment: Antiparkinsonian activity in mouse assessed as reversal of haloperidol-induced catalepsy at 3 mg/kg, po after 1 hr; type: functional, organism-based; parameters: dose 3 mg/kg
# Mus musculus [2] = experiment: Antiparkinsonian activity in mouse assessed as reversal of haloperidol-induced catalepsy at 10 mg/kg, po after 1 hr; type: functional, organism-based; parameters: dose 10 mg/kg
# Mus musculus [3] = experiment: Antiparkinsonian activity in po dosed mouse assessed as reversal of haloperidol-induced catalepsy after 1 hr; type: functional
# [4] = Half life in rat at 10 mg/kg, po; type: ADME, organism-based; parameters: dose 10 mg/kg, route oral; details: in vivo
# [5] = Oral bioavailability in rat at 10 mg/kg; type: ADME, organism-based; details: in vivo
# [6] = Cmax in rat at 10 mg/kg, po; type: ADME, organism-based; parameters: dose 10 mg/kg, route oral; details: in vivo
# [7] = Half life in mouse at 10 mg/kg, po; type: ADME, organism-based; parameters: dose 10 mg/kg, route oral; details: in vivo
# [8] = Oral bioavailability in mouse at 10 mg/kg; type: ADME, organism-based; details: in vivo
# [9] = Ratio of drug level in brain to plasma in rat at 2 mg/kg, iv and 10 mg/kg, po measured at 1 hr; type: ADME, organism-based; details: read-out: BPR
# Mus musculus [10] = experiment: Antiparkinsonian activity in mouse assessed as reversal of haloperidol-induced catalepsy at 10 mg/kg, po after 2 to 4 hrs; type: functional, organism-based; parameters: dose 10 mg/kg
# [11] = Clearance in mouse at 5 mg/kg, iv and 10 mg/kg, po; type: ADME, organism-based; details: in vivo
# [12] = Clearance in rat at 2 mg/kg, iv and 10 mg/kg, po; type: ADME, organism-based; details: in vivo
# [13] = Cmax in mouse at 10 mg/kg, po; type: ADME, organism-based; parameters: dose 10 mg/kg, route oral; details: in vivo
Structure (SMILES),Ki (Adenosine receptor A1) [nM],Ki (Adenosine receptor A2a) [nM],further results
CC(c1ccccc1)c1cc2c(N)nc(-c3cccc(C#N)c3)nc2s1 (configuration not stated),1770,340,
Cc1ccc(-c2nc(N)c3cc(-c4ccccc4)sc3n2)o1,520,67.3,
COc1ccccc1Cc1cc2c(N)nc(-c3ccc(C)o3)nc2s1,122,11,Activity (Mus musculus [2]): Active; ED50 (Mus musculus [3]): 0.8 mg/kg
Cc1ccc(-c2nc(N)c3cc(Cc4ccccc4Cl)sc3n2)o1,26.1,2.9,
Cc1csc(-c2nc(N)c3cc(C4(c5ccccc5)CC4)sc3n2)n1,> 610,,
Cc1csc(-c2nc(N)c3cc(Cc4ccccc4)sc3n2)n1,,,Activity (Mus musculus [2]): inactive
Cc1csc(-c2nc(N)c3cc(Cc4ccccc4F)sc3n2)n1,28.6,9.7,
Nc1nc(-c2ccccc2)nc2sc(-c3ccccc3)cc12,237,207,
Cc1ccc(-c2nc(N)c3cc(Cc4ccccc4F)sc3n2)o1,< 16,3.7,
Cc1ccc(-c2nc(N)c3cc(CCc4ccccc4)sc3n2)o1,,203,
Cc1csc(-c2nc(N)c3cc(C(C)c4ccccc4)sc3n2)n1 (configuration not stated),1420,100,
Nc1nc(C2CCCO2)nc2sc(Cc3ccccc3)cc12 (configuration not stated),2950,683,
C=C(c1ccccc1)c1cc2c(N)nc(-c3nc(C)cs3)nc2s1,> 594,,
Cc1csc(-c2nc(N)c3cc(Cc4ccccc4Cl)sc3n2)n1,49.6,6.9,
Nc1nc(-c2ccccc2)nc2sccc12,,500,
Cc1ccc(-c2nc(N)c3ccsc3n2)o1,493,109,
C=C(c1ccccc1)c1cc2c(N)nc(-c3cccc(C#N)c3)nc2s1,> 1000,,
Cc1ccc(-c2nc(N)c3cc(C(C)c4ccccc4)sc3n2)o1 (configuration not stated),439,40.1,
N#Cc1cccc(-c2nc(N)c3cc(C4(c5ccccc5)CC4)sc3n2)c1,> 610,,

# Further lines, with some results ahead:
Ki (Adenosine receptor A1) [nM],Ki (Adenosine receptor A2a) [nM],Structure (SMILES),further results
3710,594,Nc1nc(-c2ccccn2)nc2sc(Cc3ccccc3)cc12,
,17.1,Nc1nc(-c2ncccn2)nc2sc(Cc3ccccc3)cc12,
106,9,Nc1nc(-c2cnco2)nc2sc(Cc3ccccc3)cc12,Activity (Mus musculus [1]): inactive
812,67.3,Nc1nc(-c2ccncc2)nc2sc(Cc3ccccc3)cc12,
1160,> 168,N#Cc1cncc(-c2nc(N)c3cc(Cc4ccccc4)sc3n2)c1,
151,29.8,Nc1nc(-c2ccccc2)nc2sc(Cc3ccccc3)cc12,
298,,Cc1ccc(-c2nc(N)c3cc(Cc4ccccc4)sc3n2)o1,half-life [4]: 42 min; bioavailability [5]: 83%; Cmax [6]: 2.98 µM; Activity (Mus musculus [2]): Active; ED50 (Mus musculus [3]): 2.2 mg/kg; half-life [7]: 18 min; bioavailability [8]: 5%; Kp at 1 h [9]: 1.2; Activity (Mus musculus [10]): inactive; clearance [11]: 69 mL/min/kg; clearance [12]: 65 mL/min/kg; Cmax [13]: 5.01 µM
> 1000,,Nc1nc(-c2cccc(C(F)(F)F)c2)nc2sc(Cc3ccccc3)cc12,
> 1000,173,Nc1nc(-c2cccc(Cl)n2)nc2sc(Cc3ccccc3)cc12,
283,168,CC(C)c1ccc(-c2nc(N)c3cc(Cc4ccccc4)sc3n2)o1,
,> 1000,Nc1nc(-c2ccccc2)nc2sc(CCc3ccccc3)cc12,
222,11.4,N#Cc1cccc(-c2nc(N)c3cc(Cc4ccccc4)sc3n2)c1,Activity (Mus musculus [1]): Active; ED50 (Mus musculus [3]): < 1 mg/kg
24.8,1.4,N#Cc1cccc(-c2nc(N)c3cc(Cc4ccccc4Cl)sc3n2)c1,
> 1000,26,N#Cc1cccc(-c2nc(N)c3cc(Cc4ccccc4)sc3n2)n1,
310,4.7,Nc1nc(-c2ncco2)nc2sc(Cc3ccccc3)cc12,Activity (Mus musculus [1]): inactive
< 16,7.3,N#Cc1cccc(-c2nc(N)c3cc(Cc4ccccc4F)sc3n2)c1,
